Assay results as given in US20250339531A1, “DUX4 POLYPEPTIDES AND NUCLEIC ACIDS FOR TREATING INFLAMMATORY AND AUTOIMMUNE CONDITIONS” (Fred Hutchinson Cancer Center, priority 2021, published 2025).

Experiments:
[1] = test system: IDO1; assay: Immunofluorescence of IFNG-induced IDO1 in FSHD MB200 myotubes; type: cell-based, human; conditions: DUX4-positive versus DUX4-negative FSHD myotubes
Protocol: All myoblast experiments were conducted in immortalized MB135 or MB200 myoblast cell lines (isolated from a control or FSHD2 subject, respectively cultured in Ham's F-10 Nutrient Mix (Gibco) supplemented with 15% fetal bovine serum (Hyclone), 100 U/100 μg/ml penicillin/streptomycin (Gibco), 1 μM dexamethasone (Sigma), and 10 ng/ml recombinant human basic fibroblast growth factor (PeproTech). To differentiate the myoblasts to myotubes, media was changed to DMEM supplemented with 10 μg/ml insulin (Sigma) and 10 μg/ml transferrin (Sigma). Cell lines containing doxycycline-inducible transgenes were additionally cultured with 2 μg/mL puromycin (Sigma). Transgenes were induced with 1 μg/mL of doxycycline (Sigma) for 4 hours prior to other treatments for a total of 20 hrs. The Kitra-SRS cells (RRID:CVCL_YI69) were provided by Dr. H. Otani and Osaka University (Nakai et al., 2019) and were cultured in DMEM supplemented with 10% fetal bovine serum (Hyclone) and 100 U/100 μg/ml penicillin/streptomycin (Gibco). Biological replicates consisted of independent but parallel experiments, such as simultaneously stimulating three cell culture plates with IFNγ. Technical replicates consisted of repeat measurements of the same biological sample, such as loading the same biological sample in triplicate for analysis by RT-qPCR. […]

[2] = test system: de novo protein synthesis; assay: HPG Click-iT labeling of nascent proteins; type: cell-based, human; conditions: FSHD myotubes and SuSa cells co-stained for H3.X/Y
Protocol: Cells were incubated for 30 minutes in DMEM or RPMI media depleted for methionine and cysteine (Gibco), followed by a 1-hour incubation in methionine-depleted media supplemented with 200 μM HPG (Sigma). Cells were fixed with 4% paraformaldehyde (Electron Microscopy Sciences) diluted in PBS for 10 minutes at room temperature and stained with Click-iT HPG Alexa Fluor 488 Protein Synthesis Assay Kit (Invitrogen) according to manufacturer's protocol.

## endogenous DUX4: DUX4 expressed endogenously in FSHD myotubes and SuSa cells
[1]
  IFNG induction of IDO1: sufficient to prevent ISG induction by IFNG
[2]
  HPG Click-iT signal in cells with endogenous expression: dramatic reduction in HPG Click-iT signal
